Earlier results on two molecules are cited in paper PMC4931242, “Enhancing digestibility and ethanol yield of Populus wood via expression of an engineered monolignol 4-O-methyltransferase” (Nature Communications, 2016).

This data set concerns the target T1, MOMT4 (engineered monolignol 4-O-methyltransferase) (Clarkia breweri, UniProt O04385, T133L/E165I/H169F/F175I).
T1 construct: gene IEMT1; engineered quadruple active-site variant of isoeugenol 4-O-methyltransferase; purified enzyme
The data set can be described thus: 4-O-methylation kinetics. It is filed as biochemical. The following applies: co-substrate SAM; s.d., n=3.

T1 sequence (O04385 whole entry T133L/E165I/H169F/F175I): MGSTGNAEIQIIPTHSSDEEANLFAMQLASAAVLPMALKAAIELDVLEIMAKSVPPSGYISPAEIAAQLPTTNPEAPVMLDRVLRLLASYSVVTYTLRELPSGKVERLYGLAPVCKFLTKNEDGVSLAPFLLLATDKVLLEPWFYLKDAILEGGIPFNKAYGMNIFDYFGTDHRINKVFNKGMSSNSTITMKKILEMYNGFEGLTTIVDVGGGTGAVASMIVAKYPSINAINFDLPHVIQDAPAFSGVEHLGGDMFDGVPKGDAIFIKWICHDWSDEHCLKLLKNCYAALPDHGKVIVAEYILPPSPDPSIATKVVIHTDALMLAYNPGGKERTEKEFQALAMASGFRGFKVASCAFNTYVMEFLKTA

The Km is the substrate concentration at which the rate is half of its maximum. Turning to `COc1cc(/C=C/CO)ccc1O` [coniferyl alcohol], the Km was 193 ± 24.5 µM.

Regarding `COc1cc(/C=C/CO)cc(OC)c1O` [sinapyl alcohol], the Michaelis-Menten constant (Km) was 68.1 ± 11.1 µM.
